Source: PubChem BioAssay (NCI)
Values joined by “and” are separate entries in the source; they are usually repeats but may differ in a detail not shown here. Equal values may be shown once.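 Assay format: 96-well plates, 48-hour exposure. Here, GI50 denotes the concentration required for 50% inhibition of growth. TGI marks complete inhibition of growth.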

How the values were obtained:
Assay in all cases: DTP human tumour cell line panel, 48 h
786-0 renal = test system: 786-0 renal
RXF 393 renal = test system: RXF 393 renal
SNB-19 CNS = test system: SNB-19 CNS
TK-10 renal = test system: TK-10 renal
DU-145 prostate = test system: DU-145 prostate
OVCAR-8 ovarian = test system: OVCAR-8 ovarian
MCF7 breast = test system: MCF7 breast
SF-268 CNS = test system: SF-268 CNS
A549 NSCLC = test system: A549 NSCLC
COLO 205 colon = test system: COLO 205 colon

| SMILES | TGI (786-0 renal) | TGI (RXF 393 renal) | TGI (SNB-19 CNS) | TGI (TK-10 renal) | TGI (DU-145 prostate) | TGI (OVCAR-8 ovarian) | TGI (MCF7 breast) | TGI (SF-268 CNS) | TGI (A549 NSCLC) | TGI (COLO 205 colon) | GI50 (786-0 renal) | GI50 (RXF 393 renal) | GI50 (SNB-19 CNS) | GI50 (TK-10 renal) | GI50 (DU-145 prostate) | GI50 (OVCAR-8 ovarian) | GI50 (MCF7 breast) | GI50 (SF-268 CNS) | GI50 (A549 NSCLC) | GI50 (COLO 205 colon) |
| --- | --- | --- | --- | --- | --- | --- | --- | --- | --- | --- | --- | --- | --- | --- | --- | --- | --- | --- | --- | --- |
| CC(C)(O)[C@H]1[C@@H]2OC(=O)[C@H]1[C@]1(O)C[C@H]3OC34C(=O)O[C@H]2[C@@]41C (stereo partly drawn) (tested in a mixture with another compound) | > 100 µM | > 100 µM | > 100 µM | > 100 µM | > 100 µM | > 100 µM | > 100 µM | > 100 µM | > 100 µM | > 100 µM |  |  |  |  |  |  |  |  |  |  |
| O=C(O)c1cccc(CC(Br)C(=O)O)c1 (stereo not drawn) | > 100 µM | > 100 µM | > 100 µM | > 100 µM | > 100 µM | > 100 µM | > 100 µM | > 100 µM | > 100 µM | > 100 µM |  |  |  |  |  |  |  |  |  |  |
| C/C(=C\c1c[nH]c2ccccc12)[N+](=O)[O-] | 15.5 µM | 11.5 µM | 20 µM | 24.5 µM | 15.5 µM | 17.9 µM | 28 µM | 19.2 µM | 21.4 µM | 17.4 µM | 4.27 µM | 2.91 µM | 5.82 µM | 10.8 µM | 3.73 µM | 4.18 µM | 2.67 µM | 4.16 µM | 5.85 µM | 5.06 µM |
| COc1cc(C(=O)n2nc(N3CCN(C)CC3)c3cc(N)ccc32)cc(OC)c1OC | > 100 µM | > 100 µM | > 100 µM | > 100 µM | > 100 µM | > 100 µM | > 100 µM | 88.9 µM | > 100 µM | 37.3 µM | 4.42 µM | 3.04 µM | 4.75 µM | 15.6 µM | 3.99 µM | 4.77 µM | 3.02 µM | 4.19 µM | 6.89 µM | 15.5 µM |
| C/C(=C\c1ccn(-c2ccc(N)cc2)n1)[C@@H]1C[C@@H]2O[C@]2(C)CCC[C@H](C)[C@H](O)[C@@H](C)C(=O)C(C)(C)[C@@H](O)CC(=O)O1 | > 50 µM | 0.406 µM | > 50 µM | > 50 µM | 0.577 µM | > 50 µM | > 50 µM | > 50 µM | > 50 µM | 0.634 µM | 0.174 µM | 0.0478 µM | 0.29 µM | 0.124 µM | 0.0314 µM | 0.0481 µM | 0.0152 µM | 0.118 µM | 0.0348 µM | 0.0175 µM |
| COc1ccc(Nc2ccnc(NCCCNc3ccnc4cc(Cl)ccc34)n2)cc1 | 2.93 µM | 2.3 µM | 10.1 µM | 3.17 µM | 10.7 µM | 5.16 µM | 2.42 µM | 3.77 µM | 3.66 µM | 2.65 µM | 1.49 µM | 0.897 µM | 2.61 µM | 1.54 µM | 2.6 µM | 1.5 µM | 0.599 µM | 1.52 µM | 1.55 µM | 1.21 µM |
| O=C1C=CC2(C=C1)CCN=c1c(O)c3c(c(O)c12)=NC=N3 | 32.1 µM and > 100 µM | 30.1 µM and > 100 µM | 27.1 µM | 38.4 µM and > 100 µM | 28 µM and > 100 µM | 37.3 µM and > 100 µM | 28.7 µM and > 100 µM | 26.8 µM and > 100 µM | 39.2 µM and > 100 µM | 36.7 µM and > 100 µM | 17.6 µM and > 100 µM | 16.2 µM and > 100 µM |  | 22.7 µM and > 100 µM | 14.7 µM and > 100 µM | 14 µM and > 100 µM | 11.9 µM and > 100 µM |  | 17.9 µM and > 100 µM | 21.2 µM and > 100 µM |
| COC1CC2CCC(C)[C@](O)(O2)C(=O)C(=O)N2CCCCC2C(=O)OC(C(C)CC2CCC(O)C(OC)C2)CC(=O)C(C)C=C(C)C(OC(=O)CN(C)C)C(OC)C(=O)C(C)CC(C)/C=C/C=C/C=C\1C (stereo partly drawn) | 24.7 µM | 15.5 µM | 15.9 µM | 23.8 µM | 14.5 µM | 62.5 µM | 17.6 µM | 14.8 µM | 26.9 µM | 25.2 µM |  |  |  |  |  |  |  |  |  |  |
| O=C(Nc1ccc(Br)c(Cl)c1)c1cc(F)ccc1O | 5.73 µM | 3.97 µM | > 50 µM | 29.8 µM | > 50 µM | > 30.5 µM | > 50 µM | > 33.6 µM | > 50 µM | 13.9 µM | 1.06 µM | 1.06 µM | 0.729 µM | 1.92 µM | 1.39 µM | 1.21 µM | 0.883 µM | 0.996 µM | 1.75 µM | 2.75 µM |
| CC/C(=C(\CC)c1ccc(OCCN(CC)CC)cc1)c1ccc(OCCN(CC)CC)cc1 | 3.66 µM | 3.75 µM | 10.6 µM | 12.1 µM | 19.2 µM | 19.3 µM | 7.99 µM | 18.3 µM | 15.5 µM | 3.07 µM | 1.6 µM | 1.63 µM | 3.26 µM | 3.34 µM | 6.05 µM | 5.85 µM | 2.81 µM | 5.43 µM | 3.81 µM | 1.47 µM |
| ON(CCc1ccccn1)Cc1ccccc1 | > 100 µM | > 100 µM | > 100 µM | > 100 µM | > 100 µM | > 100 µM | > 100 µM | > 100 µM | > 100 µM | > 100 µM |  |  |  |  |  |  |  |  |  |  |
| CC[C@H](C)C(=O)O[C@H]1CCC=C2C=C[C@H](C)C(CCC3C[C@@H](O)CC(=O)O3)[C@H]21 (stereo partly drawn) | > 100 µM | 24.4 µM | > 100 µM | > 100 µM | > 100 µM | > 100 µM | > 100 µM | > 100 µM | > 100 µM | 36.8 µM | 8.71 µM | 3.65 µM | 18.4 µM | 18.5 µM | 74.8 µM | 3.78 µM | 39.5 µM | 1.94 µM | 17.7 µM | 10.5 µM |
| CCCC(=O)NNc1[nH]c(-c2ccc(OC)cc2)cc1C(=O)OCC | 34.9 µM | 45.1 µM | > 100 µM | 30.1 µM | 45.6 µM | 48.3 µM | 35.3 µM | 31 µM | 44.8 µM | 5.89 µM | 20.1 µM | 22 µM | 54.3 µM | 15.9 µM | 21.7 µM | 17.8 µM | 17.7 µM | 14.6 µM | 21.5 µM | 2.39 µM |
| O=C(O)CC1(C(=O)O)CCCCC1 | > 100 µM | > 100 µM | > 100 µM | > 100 µM | > 100 µM | > 100 µM | > 100 µM | > 100 µM | > 100 µM | > 100 µM |  |  |  |  |  |  |  |  |  |  |
